Consider 24 molecules from patent publication US6190849A, “Photographic element containing ballasted tetrazole derivative and inhibitor releasing coupler” (priority 1999, dated 2001).

The nature of assay [1]: Contrast (gamma) reduction by DI(A)R in single layer film element, C-41 process. To be noted: DIR at 0.055 mmol/m^2, relative to non-inhibitor containing check; KODAK FLEXICOLOR (C-41). The source says: The mild inhibitor fragments that are used in this invention are defined as those that cause less than a 45% gamma reduction, or more preferably less than a 40% gamma reduction, relative to a non-inhibitor containing check when coated as the following single layer film element on a cellulose triacetate film support (coverages are in g/m^2): […]
Overcoat Gelatin at 2.79 and 0.02 bis-vinylsulfonemethylether
Imaging Layer Gelatin at 2.79
Magenta Image Coupler M-1 (dispersed at 80% by
weight in tricresyl phosphate and 20% by weight
N,N-dibutyl-2-butoxy-5-t-octylaniline) at 0.692
DIR being tested at 0.055 mmol/m^2 (dispersed in twice
its weight in N,N-dibutyllauramide)
Green sensitized AgBrI at 1.08
Samples of each element were given a stepped exposure and processed in the KODAK FLEXICOLOR (C-41) process as described in British Journal of Photography Annual, 1988, pp 196-198. Contrast of the elements was determined using the maximum slope between any two density points.

Assay [2] is described as follows: Interimage in bilayer format: IDIR-2 in blue layer, IEM in green layer. To be noted: for Cg /Cb+g (interimage): IEM or CIEM in green layer at 7.2×10^-3 mmol/m^2, higher ratio = more interimage, no-IEM check; for Relative Speed (green layer): IEM or CIEM in green layer, speed point +0.15 density above Dmin, normalized to check. As to the method:
Bilayer photographic elements were prepared by coating the following layers on a cellulose triacetate film support (coverages are in g/m^2). Unless otherwise noted, all comparative and inventive compounds were dispersed in twice their own weight of N,N-dibutyllauramide: […] Layer 3 (Interlayer): gelatin at 0.64, ILS-1 at 0.11 and FD-1 at 0.11. […] Layer 5 (Overcoat): gelatin at 2.79 and 0.02 bis-vinylsulfonemethylether. […] Contrast of the elements was determined using the maximum slope between any two density points. In this test, the ratio of the contrast of the green only exposure to the contrast of the green of a blue and green exposure (Cg /Cb+g) is a measure of the interimage. A higher ratio means more inhibition originating from the blue and affecting the green record. Relative speed of the green layer was determined by measuring the speed point +0.15 density units above Dmin and normalizing to the check position.

Take `CCCCCCCCCCCCCCCCS(=O)(=O)Nc1cc(CSc2nnnn2CC(=O)OCCC)ccc1Oc1cc(C(N)=O)c(O)c2ccccc12` [IDIR-1]: the “% Contrast Reduction” value in assay [1] is reported as -34.5%.

For `CCCCCC(=O)Nc1cccc(-n2nn[nH]c2=S)c1` [IEM-9], in assay [2], the “Cg /Cb+g (interimage)” value was found to be 2.20 and the “Relative Speed (green layer)” value is 0.91.

Take `CSCC(=O)Nc1cccc(-n2nn[nH]c2=S)c1` [CIEM-8]: in assay [2], the “Cg /Cb+g (interimage)” value amounted to 1.47 and the “Relative Speed (green layer)” value worked out at 0.92.

For the molecule `CCCCCCCCCCCCCCCCS(=O)(=O)Nc1ccc(Cl)c(NC(=O)C(Oc2ccc([N+](=O)[O-])cc2CN(CC)C(=O)Sc2nnnn2-c2ccccc2)C(=O)C(C)(C)C)c1` (stereo not shown) [CDIR-7], in assay [1], the “% Contrast Reduction” value was -63.9%.

In the case of `CCn1nn[nH]c1=S` [CIEM-4], in assay [2], the “Cg /Cb+g (interimage)” value worked out at 1.22 and the “Relative Speed (green layer)” value is 1.00.

On to `CCCCCCCCCCC(=O)Nc1cccc(-n2nn[nH]c2=S)c1` [IEM-11], for which, in assay [2], the “Cg /Cb+g (interimage)” value is given as 1.29 and the “Relative Speed (green layer)” value is listed as 0.99.

As for `O=C(O)Cn1nn[nH]c1=S` [CIEM-3], in assay [2], the “Cg /Cb+g (interimage)” value came out at 1.23 and the “Relative Speed (green layer)” value came out at 0.99.

Turning to `CCCCCCCCCCCCCCOc1ccccc1NC(=O)c1cc(Sc2nnnn2-c2ccccc2)c2ccccc2c1O` [CDIR-6], in assay [1], the “% Contrast Reduction” value is -75.4%.

For `CCCCCCCCCCCCOc1ccc(C)cc1NC(=O)c1cc(Oc2ccc(CSc3nnnn3CC(=O)OCCC)cc2[N+](=O)[O-])c2ccccc2c1O` [IDIR-3], the “% Contrast Reduction” value in assay [1] was -24.5%.

As for `CCCCCCCCCCCCCCCCS(=O)(=O)Nc1ccc(Cl)c(NC(=O)C(C(=O)C(C)(C)C)n2nc(C)c(C(=O)OCCCCCC)n2)c1` (stereo not shown) [CDIR-10], in assay [1], the “% Contrast Reduction” value is -53.8%.

As to `CCCCCCCCCOC(=O)C(CCSC)n1nn[nH]c1=S` (stereo not shown) [IEM-5], in assay [2], the “Cg /Cb+g (interimage)” value amounted to 1.39 and the “Relative Speed (green layer)” value is listed as 0.96.

As to `CCCCCCCCCCCCOC(=O)C(C)OC(=O)c1ccc(Cl)c(NC(=O)C(C(=O)Nc2cc(C(=O)OC(C)C(=O)OCCCCCCCCCCCC)ccc2Cl)n2nnc3cc(Cl)c(Cl)cc32)c1` (stereo not shown) [IDIR-7], in assay [1], the “% Contrast Reduction” value was -20.0%.

Consider `CCCCCCCCCCCCCCOc1ccccc1NC(=O)c1cc(Oc2ccc(CSc3nnnn3-c3ccccc3)cc2[N+](=O)[O-])c2ccccc2c1O` [CDIR-5], for which, in assay [1], the “% Contrast Reduction” value is on record as -70.5%.

Consider `CCCCCCCCCCCCCCCCS(=O)(=O)Nc1ccc(Cl)c(NC(=O)C(C(=O)C(C)(C)C)n2ncc(SCC(=O)OCCCCCC)n2)c1` (stereo not shown) [CDIR-11], for which the “% Contrast Reduction” value in assay [1] is on record as -58.6%.

On to `CCCCCCCC(=O)Nc1cccc(-n2nn[nH]c2=S)c1` [IEM-10], for which, in assay [2], the “Cg /Cb+g (interimage)” value was found to be 1.96 and the “Relative Speed (green layer)” value turned out to be 0.91.

Turning to `CCn1nn[nH]c1=S` [CIEM-5], in assay [2], the “Cg /Cb+g (interimage)” value is on record as 1.23 and the “Relative Speed (green layer)” value is reported as 1.00.

On to `CCCCCCCOC(=O)C(CCC)n1nn[nH]c1=S` (stereo not shown) [IEM-8], for which, in assay [2], the “Cg /Cb+g (interimage)” value is reported as 2.02 and the “Relative Speed (green layer)” value is listed as 0.91.

As for `CCC(C)OC(=O)C(CCSC)n1nn[nH]c1=S` (stereo not shown) [CIEM-6], in assay [2], the “Cg /Cb+g (interimage)” value amounted to 1.72 and the “Relative Speed (green layer)” value is 0.90.

Regarding `O=C(O)c1ccc(-n2nn[nH]c2=S)cc1` [CIEM-9], in assay [2], the “Cg /Cb+g (interimage)” value was determined as 1.21 and the “Relative Speed (green layer)” value is recorded as 1.00.

`CSCC(CSC)OC(=O)CCn1nn[nH]c1=S` [CIEM-7]: in assay [2], the “Cg /Cb+g (interimage)” value worked out at 1.45 and the “Relative Speed (green layer)” value was determined as 0.90.

Consider `O=C(CSCCn1nn[nH]c1=S)OC1CCCCC1` [IEM-3], for which, in assay [2], the “Cg /Cb+g (interimage)” value turned out to be 1.85 and the “Relative Speed (green layer)” value amounted to 0.91.

On to `CCCCOC(=O)CSCCn1nn[nH]c1=S` [IEM-7], for which, in assay [2], the “Cg /Cb+g (interimage)” value was determined as 1.75 and the “Relative Speed (green layer)” value came to 0.95.

On to `S=c1[nH]nnn1-c1ccccc1` [CIEM-2], for which, in assay [2], the “Cg /Cb+g (interimage)” value is on record as 1.44 and the “Relative Speed (green layer)” value stood at 0.91.

Regarding `CCCCCCCCOC(=O)CSCCn1nn[nH]c1=S` [IEM-6], in assay [2], the “Cg /Cb+g (interimage)” value amounted to 1.31 and the “Relative Speed (green layer)” value worked out at 0.99.
